From patent publication US8420049B2 (priority 2002, dated 2013)
Values belong to the compound of their own block, whether it stands above or below them.

Legend:
[1] = In vitro metabolism of [^11C] AMP in human whole blood or plasma; type: in vitro ADME
Method: Human plasma was prepared from heparinized blood of a healthy volunteer. 50 μL of [^11C] AMP (39.96-70.82 GBq/μmol, 1080-1914 mCi/μmol) was added to 1 mL of plasma or heparinized whole blood at 37° C. In one series of studies, dipyridamole was added to give a concentration of 500 μM in whole blood. One hundred μL samples, which were removed from the incubation mixture at 0, 2, 5, 10, 20, and 30 minutes, were added to 350 μL of water at 0° C. and acidified with 50 μL of 5N perchloric acid. After standing for 5 minutes on ice, the protein precipitate was removed by centrifugation at 13,000×g for 1 minute in a microcentrifuge. The acid soluble supernatant was analyzed by HPLC. Chromatographic separation of the labeled adenosine phosphate esters used a Phenomenex Synergi Polar RP column (4.6×250 mm, 10 micron particle size) eluted with 0.1N perchloric acid at 2 mL/min. Radioactivity was detected by a dual BGO flow detector (Bioscan Inc., Washington D.C.). Optical detection was at 254 nm. Data from both detectors was collected and analyzed by Laura software (Bioscan Inc., Washington D.C.).

[2] = Ex vivo distribution of [^11C] AMP in mice; parameters: species or system mouse; details: CD-1 mice, mean ± SD (n = 3)
Method: Non-fasted, male CD-1 mice (25 g) were injected via the tail vein with 15.5 MBq (418 μCi, 2.57 μg/kg) of [^11C] AMP. Three mice each were sacrificed by cervical dislocation at 5, 30, and 60 minutes after injection. The lungs, heart, kidneys, liver, spleen, intestine, stomach, and brain were quickly removed and put on ice. One femur and samples of thigh muscle and blood were also collected. The organs were weighed, and the tissue radioactivity measured with an automated gamma counter (LKB Wallac 1282 Compugamma CS Universal Gamma Counter). The percent injected dose per gram of tissue (% ID/g) was calculated by comparison with samples of a standard dilution of the initial dose. All measurements were corrected for decay.

[3] = Effect of dipyridamole treatment on uptake and distribution of [^11C] AMP in mice; type: in vivo, mouse; details: 30 mg/kg dipyridamole ip 60 minutes before [^11C] AMP
Method: The effect of dipyridamole treatment on the uptake and distribution of [^11C] AMP, nine mice were given a 30 mg/kg dose of dipyridamole ip 60 minutes prior to administration of the radiotracer was determined. Three mice each were sacrificed 5, 30, and 60 minutes after injection of 23.8 MBq (642 μCi, 8.7 μg/kg) of [^11C] AMP. All tissue samples were handled as described above.

Structure (SMILES): Nc1n[11cH]nc2c1ncn2[C@@H]1O[C@H](COP(=O)(O)O)[C@@H](O)[C@H]1O [[^11C] AMP, [^11C] Adenosine 5′-Monophosphate]
conversion of the tracer to adenosine ([1]; dipyridamole (500 μM) treated whole human blood, after 5 minutes): > 60%
conversion to ATP ([1]; whole human blood, 37° C., after 10 minutes): > 60%
Ex vivo mouse biodistribution ([2]; Blood, 5 minutes after iv injection): 27.94 ± 8.21 % ID/g
Ex vivo mouse biodistribution ([2]; Blood, 30 minutes after iv injection): 27.34 ± 0.41 % ID/g
Ex vivo mouse biodistribution ([2]; Blood, 60 minutes after iv injection): 24.34 ± 4.13 % ID/g
Ex vivo mouse biodistribution ([2]; Bone, 5 minutes after iv injection): 2.35 ± 0.68 % ID/g
Ex vivo mouse biodistribution ([2]; Bone, 30 minutes after iv injection): 2.57 ± 0.34 % ID/g
Ex vivo mouse biodistribution ([2]; Bone, 60 minutes after iv injection): 3.21 ± 0.48 % ID/g
Ex vivo mouse biodistribution ([2]; Brain, 5 minutes after iv injection): 0.78 ± 0.18 % ID/g
Ex vivo mouse biodistribution ([2]; Brain, 30 minutes after iv injection): 1.06 ± 0.19 % ID/g
Ex vivo mouse biodistribution ([2]; Brain, 60 minutes after iv injection): 0.80 ± 0.26 % ID/g
Ex vivo mouse biodistribution ([2]; Heart, 5 minutes after iv injection): 20.09 ± 3.24 % ID/g
Ex vivo mouse biodistribution ([2]; Heart, 30 minutes after iv injection): 18.07 ± 5.19 % ID/g
Ex vivo mouse biodistribution ([2]; Heart, 60 minutes after iv injection): 20.47 ± 2.87 % ID/g
Ex vivo mouse biodistribution ([2]; Intestine, 5 minutes after iv injection): 1.74 ± 0.41 % ID/g
Ex vivo mouse biodistribution ([2]; Intestine, 30 minutes after iv injection): 1.80 ± 0.50 % ID/g
Ex vivo mouse biodistribution ([2]; Intestine, 60 minutes after iv injection): 2.17 ± 1.06 % ID/g
Ex vivo mouse biodistribution ([2]; Kidneys, 5 minutes after iv injection): 8.88 ± 3.82 % ID/g
Ex vivo mouse biodistribution ([2]; Kidneys, 30 minutes after iv injection): 9.31 ± 2.88 % ID/g
Ex vivo mouse biodistribution ([2]; Kidneys, 60 minutes after iv injection): 6.80 ± 4.10 % ID/g
Ex vivo mouse biodistribution ([2]; Liver, 5 minutes after iv injection): 7.56 ± 3.98 % ID/g
Ex vivo mouse biodistribution ([2]; Liver, 30 minutes after iv injection): 2.99 ± 0.10 % ID/g
Ex vivo mouse biodistribution ([2]; Liver, 60 minutes after iv injection): 3.53 ± 0.55 % ID/g
Ex vivo mouse biodistribution ([2]; Lungs, 5 minutes after iv injection): 32.37 ± 4.52 % ID/g
Ex vivo mouse biodistribution ([2]; Lungs, 30 minutes after iv injection): 29.52 ± 5.42 % ID/g
Ex vivo mouse biodistribution ([2]; Lungs, 60 minutes after iv injection): 38.48 ± 3.63 % ID/g
Ex vivo mouse biodistribution ([2]; Muscle, 5 minutes after iv injection): 2.14 ± 0.61 % ID/g
Ex vivo mouse biodistribution ([2]; Muscle, 30 minutes after iv injection): 3.67 ± 0.54 % ID/g
Ex vivo mouse biodistribution ([2]; Muscle, 60 minutes after iv injection): 3.63 ± 1.04 % ID/g
Ex vivo mouse biodistribution ([2]; Spleen, 5 minutes after iv injection): 2.96 ± 1.49 % ID/g
Ex vivo mouse biodistribution ([2]; Spleen, 30 minutes after iv injection): 4.75 ± 0.67 % ID/g
Ex vivo mouse biodistribution ([2]; Spleen, 60 minutes after iv injection): 4.71 ± 1.06 % ID/g
Ex vivo mouse biodistribution ([2]; Stomach, 5 minutes after iv injection): 1.98 ± 0.36 % ID/g
Ex vivo mouse biodistribution ([2]; Stomach, 30 minutes after iv injection): 1.12 ± 0.25 % ID/g
Ex vivo mouse biodistribution ([2]; Stomach, 60 minutes after iv injection): 2.10 ± 0.98 % ID/g

effect on amount of tracer in the blood [3]: did not affect
effect on uptake of [^11C] radiotracer in the lungs ([3]; 60 minutes after injection): significantly decreased
Structure (SMILES): OCCN(CCO)c1nc(N2CCCCC2)c2nc(N(CCO)CCO)nc(N3CCCCC3)c2n1 [dipyridamole]
